Data published in US9345669B2, “Biodegradable natural films based on co-products derived from industrial-scale seed-treatment processes” (Sojasun Technologies, priority 2011, dated 2016).

Assay: Diffusion of isoflavones from films into an agar plate (gelose) matrix simulating the vaginal mucous membrane
Format: physicochemical
Text: FIG. 1 is a flowchart pertaining to the protocol for evaluating the diffusion of isoflavones made out of films according to the invention towards a matrix simulating the vaginal mucous membrane;
The films according to the present invention meeting the formulations 1 to 6 described here above were associated with an extract obtained from soybeans. The extract is incorporated directly into the mixture so that its content is 4.2% by mass. This extract has the particular feature of being rich in isoflavones and especially having high daidzin and genistin content.
The tests explained here below show the possible use of films according to the invention for making products for administering active ingredients by diffusion of these ingredients from the film towards the vaginal mucous membrane.
In these tests, in order to model the vaginal mucous membrane, an agar plate with an Agar concentration of 30 g/l was used.
The diffusion of daidzin and genistin in the lower agar plate and the upper agar plate was studied with films complying with the formulations 1, 2 and 3 described here above. The results of this study are indicated in the two graphs of FIG. 2.
The influence of the proportion by weight of film-forming agent (sodium caseinate (NaCAS)) in films according to the invention meeting the formulations 5, 2 and 4 described here above on the diffusion of daidzin (a) and genistin (b) has also been studied. The results of this study are indicated in the two graphs shown in FIG. 3 in which the concentration in isoflavones diffused has been related in terms of percentage to the case where the entire active ingredient would have been diffused.
The hydrophobic agent chosen for this study is soy lecithin. A suspension of this compound was also prepared using 5 g of soy lecithin powder mixed with 10 mL of ultra-pure water. The films complying with the formulations 1 and 2 were then coated with this suspension (on the upper and lower faces) and then placed on gelose in order to carry out migration tests.
Two rates of plasticization were examined, corresponding to the formulations 4 and 5 of the films according to the invention described here above.

In the case of Daidzin, the “concentration in gelose under equilibrium” value (films of formulations 1, 2 and 3 with 4.2% soybean extract, agar 30 g/l (FIG. 2)) is reported as “about 10 μg/mL”, the “isoflavone diffused towards the gelose after 24 hours of contact” value (films of formulations 5, 2 and 4 (varied proportion of sodium caseinate), % of total active ingredient (FIG. 3)) is reported as “more than 90%” and the “isoflavone diffused in the gelose after 48 hours of contact, with soy lecithin coating” value (formulations 1 and 2 coated with soy lecithin on upper and lower faces (FIG. 4)) is reported as 40%. The “isoflavone diffused after 30 hours, plasticization rate 20%” value (plasticization rate 20% glycerol (FIG. 5)) was 90% and the “isoflavone diffused after 30 hours, glycerol rate 30% by mass” value (plasticization rate 30% glycerol (FIG. 5)) was about 100%.
